{
  "source": "ChEMBL document CHEMBL1149251",
  "about": "“Acetylcholinesterase inhibitory activity of scopolin and scopoletin discovered by virtual screening of natural products” (J Med Chem, 2004)",
  "key": {"Rattus norvegicus [1]": {"test_system": "Rattus norvegicus", "experiment": "Increase in extracellular acetylcholine at 2 uM in urethane anesthetized Sprague-Dawley rat nucleus accumbens", "type": "functional"}, "Rattus norvegicus [2]": {"test_system": "Rattus norvegicus", "experiment": "Increase in extracellular acetylcholine at 1 uM in urethane anesthetized Sprague-Dawley rat nucleus accumbens", "type": "functional"}, "Rattus norvegicus [3]": {"test_system": "Rattus norvegicus", "experiment": "Increase in extracellular acetylcholine in urethane anesthetized Sprague-Dawley rat nucleus accumbens", "type": "functional"}, "Rattus norvegicus [4]": {"test_system": "Rattus norvegicus", "experiment": "Increase in extracellular acetylcholine in urethane anesthetized Sprague-Dawley rat nucleus accumbens at 2 umol relative to basal release", "type": "functional"}, "Acetylcholinesterase [5]": {"target": "T1, Acetylcholinesterase (Homo sapiens, UniProt P22303)", "T1 sequence (P22303 whole entry)": "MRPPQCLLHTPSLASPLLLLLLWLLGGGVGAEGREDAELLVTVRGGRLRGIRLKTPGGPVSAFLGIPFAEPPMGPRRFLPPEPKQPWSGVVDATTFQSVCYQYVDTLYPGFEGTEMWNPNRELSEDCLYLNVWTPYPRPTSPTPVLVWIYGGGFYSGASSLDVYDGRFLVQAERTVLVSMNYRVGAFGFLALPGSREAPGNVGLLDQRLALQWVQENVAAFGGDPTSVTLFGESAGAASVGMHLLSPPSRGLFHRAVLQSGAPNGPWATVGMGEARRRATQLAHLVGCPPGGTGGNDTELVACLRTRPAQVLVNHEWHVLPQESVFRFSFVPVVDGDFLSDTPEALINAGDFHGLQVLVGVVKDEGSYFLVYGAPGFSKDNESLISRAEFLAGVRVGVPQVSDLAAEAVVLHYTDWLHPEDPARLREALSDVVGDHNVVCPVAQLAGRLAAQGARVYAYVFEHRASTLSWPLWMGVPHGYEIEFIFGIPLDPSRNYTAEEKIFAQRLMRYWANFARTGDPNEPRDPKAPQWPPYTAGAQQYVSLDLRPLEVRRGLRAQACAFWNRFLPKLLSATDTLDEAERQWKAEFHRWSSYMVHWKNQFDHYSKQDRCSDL", "experiment": "Inhibition of AChE by microplate assay"}, "Acetylcholinesterase [6]": {"target": "T1, Acetylcholinesterase", "experiment": "Inhibition of AChE at 1000 uM by microplate assay"}},
  "data": [
    {"smiles": "COc1ccc2c3c1O[C@H]1C[C@@H](O)C=C[C@@]31CCN(C)C2", "note": "[GALANTAMINE]", "values": [
      {"measurement": "Activity", "setting": "Rattus norvegicus [1]", "result": 1.68},
      {"measurement": "Activity", "setting": "Rattus norvegicus [2]", "result": 1.78}
    ]},
    {"smiles": "COc1cc2ccc(=O)oc2cc1O", "note": "[SCOPOLETIN]", "values": [
      {"measurement": "Activity", "setting": "Rattus norvegicus [3]", "result": 1.74},
      {"measurement": "Activity", "setting": "Rattus norvegicus [4]", "result": 170, "unit": "%"},
      {"measurement": "IC50", "setting": "Acetylcholinesterase [5]", "result": 169, "unit": "µM"}
    ]},
    {"smiles": "COc1cc2ccc(=O)oc2cc1O[C@@H]1O[C@H](CO)[C@@H](O)[C@H](O)[C@H]1O", "note": "[SCOPOLIN]", "values": [
      {"measurement": "Activity", "setting": "Rattus norvegicus [3]", "result": 3.18},
      {"measurement": "Activity", "setting": "Rattus norvegicus [4]", "result": 300, "unit": "%"},
      {"measurement": "inhibition", "setting": "Acetylcholinesterase [6]", "result": 30.1, "unit": "%"},
      {"measurement": "Activity", "setting": "Acetylcholinesterase [5]", "result": "Dose-dependent effect"}
    ]}
  ]
}
